From ChEMBL document CHEMBL1201861, “Genomics of Drug Sensitity in Cancer screening data, Wellcome Trust Sanger Institute”

Assays:
Assay in all cases: cells
GI-1 = type: functional, cell-based, Homo sapiens; conditions: Homo sapiens, GI-1;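 further: growth inhibition of human GI-1 cells, measured with a cell viability readout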
Description: SANGER: Inhibition of human GI-1 cell growth in a cell viability assay.

BT-474 = type: functional, cell-based, Homo sapiens; conditions: Homo sapiens, BT-474
Description: SANGER: Inhibition of human BT-474 cell growth in a cell viability assay.

TE-1 = type: functional, cell-based, Homo sapiens; conditions: Homo sapiens, TE-1;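 further: growth inhibition of the human TE-1 cell line, read out with a cell viability assay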
Description: SANGER: Inhibition of human TE-1 cell growth in a cell viability assay.

ETK-1 = type: functional, cell-based, Homo sapiens; conditions: Homo sapiens, ETK-1;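 further: growth inhibition of human ETK-1 cells, read out with a cell viability assay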
Description: SANGER: Inhibition of human ETK-1 cell growth in a cell viability assay.

EW-3 = type: functional, cell-based, Homo sapiens; conditions: Homo sapiens, EW-3;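 further: cell viability assay read-out, IC50 reflects inhibition of growth of the EW-3 cells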
Description: SANGER: Inhibition of human EW-3 cell growth in a cell viability assay.

SCC-15 = type: functional, cell-based, Homo sapiens; conditions: Homo sapiens, SCC-15;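 further: growth inhibition of SCC-15 cells, read out with a cell viability assay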
Description: SANGER: Inhibition of human SCC-15 cell growth in a cell viability assay.

KE-37 = type: functional, cell-based, Homo sapiens; conditions: Homo sapiens, KE-37;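 further: growth inhibition of KE-37 cells, read out with a cell viability assay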
Description: SANGER: Inhibition of human KE-37 cell growth in a cell viability assay.

EW-13 = type: functional, cell-based, Homo sapiens; conditions: Homo sapiens, EW-13; read-out: IC50;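 further: growth inhibition of EW-13 cells, read out with a cell viability assay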
Description: SANGER: Inhibition of human EW-13 cell growth in a cell viability assay.

NCI-H720 = type: functional, cell-based, Homo sapiens; conditions: Homo sapiens, NCI-H720;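 further: growth inhibition of human NCI-H720 cells determined by a cell viability assay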
Description: SANGER: Inhibition of human NCI-H720 cell growth in a cell viability assay.

SK-NEP-1 = type: functional, cell-based, Homo sapiens; conditions: Homo sapiens, SK-NEP-1;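 further: growth inhibition of human SK-NEP-1 cells, read out by a cell viability assay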
Description: SANGER: Inhibition of human SK-NEP-1 cell growth in a cell viability assay.

IST-SL1 = type: functional, cell-based, Homo sapiens; conditions: Homo sapiens, IST-SL1;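 further: growth inhibition of human IST-SL1 cells, read out with a cell viability assay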
Description: SANGER: Inhibition of human IST-SL1 cell growth in a cell viability assay.

TE-6 = type: functional, cell-based, Homo sapiens; conditions: Homo sapiens, TE-6;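 further: growth inhibition of TE-6 cells, read out with a cell viability assay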
Description: SANGER: Inhibition of human TE-6 cell growth in a cell viability assay.

ML-2 = type: functional, cell-based, Homo sapiens; conditions: Homo sapiens, ML-2;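 further: growth inhibition of ML-2 cells, measured with a cell viability readout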
Description: SANGER: Inhibition of human ML-2 cell growth in a cell viability assay.

BB65-RCC = type: functional, cell-based, Homo sapiens; conditions: Homo sapiens, BB65-RCC;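 further: growth inhibition of the cell line, measured with a cell viability assay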
Description: SANGER: Inhibition of human BB65-RCC cell growth in a cell viability assay.

KP-N-YS = type: functional, cell-based, Homo sapiens; conditions: Homo sapiens, KP-N-YS;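 further: cell viability assay measuring inhibition of cell line growth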
Description: SANGER: Inhibition of human KP-N-YS cell growth in a cell viability assay.

MFM-223 = type: functional, cell-based, Homo sapiens; conditions: Homo sapiens, MFM-223
Description: SANGER: Inhibition of human MFM-223 cell growth in a cell viability assay.

KU812 cell line = type: functional, cell-based, Homo sapiens; conditions: Homo sapiens, KU812;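 further: growth inhibition of KU812 cells, read out with a cell viability assay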
Description: SANGER: Inhibition of human KU812 cell growth in a cell viability assay.

no-11 = type: functional, cell-based, Homo sapiens; conditions: Homo sapiens;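 further: growth inhibition of human NO-11 cells, read out with a cell viability assay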
Description: SANGER: Inhibition of human no-11 cell growth in a cell viability assay.

SW872 = type: functional, cell-based, Homo sapiens; conditions: Homo sapiens, SW872;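 further: growth inhibition of SW872 cells, read out by a viability assay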
Description: SANGER: Inhibition of human SW872 cell growth in a cell viability assay.

OCI-AML2 = type: functional, cell-based, Homo sapiens; conditions: Homo sapiens, OCI-AML2;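 further: growth inhibition of OCI-AML2 cells, read out with a cell viability assay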
Description: SANGER: Inhibition of human OCI-AML2 cell growth in a cell viability assay.

NKM-1 = type: functional, cell-based, Homo sapiens; conditions: Homo sapiens, NKM-1;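 further: growth inhibition of NKM-1 cells, read out with a cell viability assay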
Description: SANGER: Inhibition of human NKM-1 cell growth in a cell viability assay.

JAR = type: functional, cell-based, Homo sapiens; conditions: Homo sapiens, JAR;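 further: growth inhibition of human JAR cells determined with a cell viability assay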
Description: SANGER: Inhibition of human JAR cell growth in a cell viability assay.

DMS-114 = type: functional, cell-based, Homo sapiens; conditions: Homo sapiens, DMS-114
HAL-01 = type: functional, cell-based, Homo sapiens; conditions: Homo sapiens, HAL-01;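 further: growth inhibition of human HAL-01 cells, read out with a cell viability assay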
Description: SANGER: Inhibition of human HAL-01 cell growth in a cell viability assay.

LOX IMVI = type: functional, cell-based, Homo sapiens; conditions: Homo sapiens, LOX IMVI
Description: SANGER: Inhibition of human LOXIMVI cell growth in a cell viability assay.

LB771-HNC = type: functional, cell-based; conditions: Homo sapiens;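 further: growth inhibition of LB771-HNC human cells, read out with a cell viability assay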
Description: SANGER: Inhibition of human LB771-HNC cell growth in a cell viability assay.

MOLT-16 = type: functional, cell-based, Homo sapiens; conditions: Homo sapiens, MOLT-16;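 further: growth inhibition of human MOLT-16 cells, read out with a cell viability assay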
Description: SANGER: Inhibition of human MOLT-16 cell growth in a cell viability assay.

HCC2218 = type: functional, cell-based, Homo sapiens; conditions: Homo sapiens, HCC2218;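 further: cell viability assay read-out, with IC50 given as the concentration that inhibits growth of the cell line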
Description: SANGER: Inhibition of human HCC2218 cell growth in a cell viability assay.

SK-UT-1 = type: functional, cell-based, Homo sapiens; conditions: Homo sapiens, SK-UT-1;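 further: growth inhibition of SK-UT-1 cells, measured by a cell viability assay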
Description: SANGER: Inhibition of human SK-UT-1 cell growth in a cell viability assay.

U-87 MG = type: functional, cell-based, Homo sapiens, U-87MG ATCC; conditions: Homo sapiens, U-87 MG;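 further: growth inhibition of the cells measured with a viability assay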
Description: SANGER: Inhibition of human U-87-MG cell growth in a cell viability assay.

DB = type: functional, cell-based, Homo sapiens; conditions: Homo sapiens, DB
Description: SANGER: Inhibition of human DB cell growth in a cell viability assay.

MEG-01 = type: functional, cell-based, Homo sapiens; conditions: Homo sapiens, MEG-01;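 further: growth inhibition of MEG-01 cells, read out by a cell viability assay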
Description: SANGER: Inhibition of human MEG-01 cell growth in a cell viability assay.

BE-13 = type: functional, cell-based, Homo sapiens; conditions: Homo sapiens, BE-13;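 further: growth inhibition of human BE-13 cells, measured with a cell viability assay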
Description: SANGER: Inhibition of human BE-13 cell growth in a cell viability assay.

L-363 = type: functional, cell-based, Homo sapiens; conditions: Homo sapiens, L-363
Description: SANGER: Inhibition of human L-363 cell growth in a cell viability assay.

DJM-1 = type: functional, cell-based, Homo sapiens; conditions: Homo sapiens, DJM-1;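 further: growth inhibition of human DJM-1 cells, read out by a cell viability assay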
Description: SANGER: Inhibition of human DJM-1 cell growth in a cell viability assay.

RCC10RGB = type: functional, cell-based, Homo sapiens; conditions: Homo sapiens, RCC10RGB;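 further: growth inhibition of human RCC10RGB cells, read out by a cell viability assay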
Description: SANGER: Inhibition of human RCC10RGB cell growth in a cell viability assay.

OMC-1 = type: functional, cell-based, Homo sapiens; conditions: Homo sapiens, OMC-1;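 further: growth inhibition of the OMC-1 cell line, measured by a cell viability assay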
Description: SANGER: Inhibition of human OMC-1 cell growth in a cell viability assay.

BV-173 = type: functional, cell-based, Homo sapiens; conditions: Homo sapiens, BV-173
Description: SANGER: Inhibition of human BV-173 cell growth in a cell viability assay.

SNU1 = type: functional, cell-based, Homo sapiens; conditions: Homo sapiens, SNU1;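 further: growth inhibition of human NCI-SNU-1 cells, measured with a cell viability assay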
Description: SANGER: Inhibition of human NCI-SNU-1 cell growth in a cell viability assay.

D-502MG = type: functional, cell-based, Homo sapiens; conditions: Homo sapiens, D-502MG
Description: SANGER: Inhibition of human D-502MG cell growth in a cell viability assay.

MV4-11 = type: functional, cell-based, Homo sapiens, MV-4-11; conditions: Homo sapiens, MV4-11;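 further: cell viability readout measuring growth inhibition of human MV-4-11 cells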
Description: SANGER: Inhibition of human MV-4-11 cell growth in a cell viability assay.

LAN-6 = type: functional, cell-based, Homo sapiens; conditions: Homo sapiens, LAN-6;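 further: growth inhibition of LAN-6 cells, determined with a cell viability assay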
Description: SANGER: Inhibition of human LAN-6 cell growth in a cell viability assay.

NCI-H1395 = type: functional, cell-based, Homo sapiens; conditions: Homo sapiens, NCI-H1395;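 further: cell viability assay read-out quantifying reduced proliferation of human NCI-H1395 cells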
Description: SANGER: Inhibition of human NCI-H1395 cell growth in a cell viability assay.

J-RT3-T3-5 = type: functional, cell-based, Homo sapiens; conditions: Homo sapiens, J-RT3-T3-5;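 further: cell viability assay measuring growth inhibition of human J-RT3-T3-5 cells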
Description: SANGER: Inhibition of human J-RT3-T3-5 cell growth in a cell viability assay.

HT = type: functional, cell-based, Homo sapiens; conditions: Homo sapiens, HT
Description: SANGER: Inhibition of human HT cell growth in a cell viability assay.

MZ2-MEL = type: functional, cell-based, Homo sapiens; conditions: Homo sapiens, MZ2-MEL;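 further: growth inhibition of MZ2-MEL cells read out with a cell viability assay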
Description: SANGER: Inhibition of human MZ2-MEL cell growth in a cell viability assay.

COLO-829 = type: functional, cell-based, Homo sapiens; conditions: Homo sapiens, COLO-829
Description: SANGER: Inhibition of human COLO-829 cell growth in a cell viability assay.

COR-L88 = type: functional, cell-based, Homo sapiens; conditions: Homo sapiens, COR-L88;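 further: growth inhibition of COR-L88 cells, read out with a cell viability assay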
Description: SANGER: Inhibition of human COR-L88 cell growth in a cell viability assay.

O=C1NC(=O)c2c1c(-c1ccccc1Cl)cc1[nH]c3ccc(O)cc3c21
IC50 (GI-1): > 2 µM
IC50 (BT-474): > 2 µM
IC50 (TE-1): > 2 µM
IC50 (ETK-1): > 2 µM
IC50 (EW-3): 0.947 µM
IC50 (SCC-15): > 2 µM
IC50 (KE-37): 0.484 µM
IC50 (EW-13): > 2 µM
IC50 (NCI-H720): 1.7 µM
IC50 (SK-NEP-1): > 2 µM
IC50 (IST-SL1): 1.46 µM
IC50 (TE-6): > 2 µM
IC50 (ML-2): > 2 µM
IC50 (BB65-RCC): 1.42 µM
IC50 (KP-N-YS): > 2 µM
IC50 (MFM-223): > 2 µM
IC50 (KU812 cell line): > 2 µM
IC50 (no-11): > 2 µM
IC50 (SW872): > 2 µM
IC50 (OCI-AML2): > 2 µM
IC50 (NKM-1): > 2 µM
IC50 (JAR): > 2 µM
IC50 (DMS-114): > 2 µM
IC50 (HAL-01): 1.16 µM
IC50 (LOX IMVI): > 2 µM
IC50 (LB771-HNC): > 2 µM
IC50 (MOLT-16): 1.42 µM
IC50 (HCC2218): > 2 µM
IC50 (SK-UT-1): > 2 µM
IC50 (U-87 MG): > 2 µM
IC50 (DB): 1.3 µM
IC50 (MEG-01): > 2 µM
IC50 (BE-13): > 2 µM
IC50 (L-363): 1.53 µM
IC50 (DJM-1): > 2 µM
IC50 (RCC10RGB): > 2 µM
IC50 (OMC-1): > 2 µM
IC50 (BV-173): 0.434 µM
IC50 (SNU1): 0.898 µM
IC50 (D-502MG): > 2 µM
IC50 (MV4-11): 0.809 µM
IC50 (LAN-6): > 2 µM
IC50 (NCI-H1395): > 2 µM
IC50 (J-RT3-T3-5): 1.58 µM
IC50 (HT): > 2 µM
IC50 (MZ2-MEL): > 2 µM
IC50 (COLO-829): > 2 µM
IC50 (COR-L88): 1.56 µM

CC(C)C[C@H](NC(=O)[C@H](Cc1ccccc1)NC(=O)c1cnccn1)B(O)O [BORTEZOMIB]
IC50 (GI-1): 0.000764 µM
IC50 (BT-474): > 0.02 µM
IC50 (TE-1): 0.00103 µM
IC50 (ETK-1): 0.00284 µM
IC50 (EW-3): > 0.02 µM
IC50 (SCC-15): > 0.02 µM
IC50 (KE-37): 0.00213 µM
IC50 (EW-13): > 0.02 µM
IC50 (NCI-H720): > 0.02 µM
IC50 (SK-NEP-1): 0.00901 µM
IC50 (IST-SL1): 0.00468 µM
IC50 (TE-6): > 0.02 µM
IC50 (ML-2): 0.000821 µM
IC50 (BB65-RCC): 0.000304 µM
IC50 (KP-N-YS): > 0.02 µM
IC50 (MFM-223): 0.0179 µM
IC50 (KU812 cell line): 0.00242 µM
IC50 (no-11): 0.00355 µM
IC50 (SW872): 0.000996 µM
IC50 (OCI-AML2): > 0.02 µM
IC50 (NKM-1): 0.002 µM
IC50 (JAR): 0.0161 µM
IC50 (DMS-114): 0.00962 µM
IC50 (HAL-01): 0.00118 µM
IC50 (LOX IMVI): 0.0035 µM
IC50 (LB771-HNC): 0.000474 µM
IC50 (MOLT-16): 0.00289 µM
IC50 (HCC2218): 0.0195 µM
IC50 (SK-UT-1): 0.000163 µM
IC50 (U-87 MG): 0.0168 µM
IC50 (DB): 0.00341 µM
IC50 (MEG-01): 0.00349 µM
IC50 (BE-13): 0.00193 µM
IC50 (L-363): 0.0077 µM
IC50 (DJM-1): 0.00363 µM
IC50 (RCC10RGB): 0.00393 µM
IC50 (OMC-1): 0.00418 µM
IC50 (BV-173): > 0.02 µM
IC50 (SNU1): 0.0132 µM
IC50 (D-502MG): 0.00637 µM
IC50 (MV4-11): 0.00182 µM
IC50 (LAN-6): 0.00205 µM
IC50 (NCI-H1395): > 0.02 µM
IC50 (J-RT3-T3-5): > 0.02 µM
IC50 (HT): 0.00302 µM
IC50 (MZ2-MEL): 0.000407 µM
IC50 (COLO-829): 0.000614 µM
IC50 (COR-L88): 0.00347 µM

Nc1ccccc1NC(=O)c1ccc(CNC(=O)OCc2cccnc2)cc1 [ENTINOSTAT]
IC50 (GI-1): 2.93 µM
IC50 (BT-474): 1.52 µM
IC50 (TE-1): 0.553 µM
IC50 (ETK-1): 1.79 µM
IC50 (EW-3): > 5 µM
IC50 (KE-37): 0.643 µM
IC50 (EW-13): > 5 µM
IC50 (NCI-H720): 2.17 µM
IC50 (SK-NEP-1): 1.2 µM
IC50 (IST-SL1): 0.773 µM
IC50 (TE-6): > 5 µM
IC50 (ML-2): 2.33 µM
IC50 (BB65-RCC): 3.98 µM
IC50 (KP-N-YS): > 5 µM
IC50 (MFM-223): > 5 µM
IC50 (KU812 cell line): 1.7 µM
IC50 (no-11): > 5 µM
IC50 (SW872): 1.81 µM
IC50 (OCI-AML2): 3.63 µM
IC50 (NKM-1): 0.109 µM
IC50 (JAR): 0.878 µM
IC50 (DMS-114): > 5 µM
IC50 (HAL-01): 1.17 µM
IC50 (LOX IMVI): 1.93 µM
IC50 (LB771-HNC): > 5 µM
IC50 (MOLT-16): 0.41 µM
IC50 (HCC2218): 1.17 µM
IC50 (SK-UT-1): 1.79 µM
IC50 (U-87 MG): 3.04 µM
IC50 (DB): 1.7 µM
IC50 (MEG-01): 1.22 µM
IC50 (BE-13): 0.497 µM
IC50 (L-363): 0.567 µM
IC50 (DJM-1): 3.6 µM
IC50 (RCC10RGB): > 5 µM
IC50 (OMC-1): > 5 µM
IC50 (BV-173): 0.371 µM
IC50 (SNU1): > 5 µM
IC50 (D-502MG): > 5 µM
IC50 (MV4-11): 0.53 µM
IC50 (LAN-6): 2.02 µM
IC50 (NCI-H1395): > 5 µM
IC50 (J-RT3-T3-5): 0.337 µM
IC50 (HT): 2.1 µM
IC50 (MZ2-MEL): > 5 µM
IC50 (COLO-829): 1.54 µM
IC50 (COR-L88): 0.23 µM

CO[C@@H]1[C@H](N(C)C(=O)c2ccccc2)C[C@H]2O[C@]1(C)n1c3ccccc3c3c4c(c5c6ccccc6n2c5c31)C(=O)NC4 [MIDOSTAURIN]
IC50 (GI-1): 0.319 µM
IC50 (ETK-1): 0.377 µM
IC50 (SCC-15): > 0.512 µM
IC50 (no-11): > 0.512 µM
IC50 (SW872): > 0.512 µM
IC50 (OCI-AML2): > 0.512 µM
IC50 (SK-UT-1): 0.33 µM
IC50 (BE-13): > 0.512 µM
